These results are taken from US20230416210A1, “METHODS OF MAKING A PPAR-DELTA AGONIST” (Reneo Pharmaceuticals, Inc., priority 2020, published 2023).

Structures are written as SMILES. Some results are limits rather than exact numbers.

For one series, the target named is T1, PPARδ (Mus musculus, UniProt P35396).
T1 construct: host or cells: mice (skeletal muscle), in vivo
T1 sequence (P35396 1-440): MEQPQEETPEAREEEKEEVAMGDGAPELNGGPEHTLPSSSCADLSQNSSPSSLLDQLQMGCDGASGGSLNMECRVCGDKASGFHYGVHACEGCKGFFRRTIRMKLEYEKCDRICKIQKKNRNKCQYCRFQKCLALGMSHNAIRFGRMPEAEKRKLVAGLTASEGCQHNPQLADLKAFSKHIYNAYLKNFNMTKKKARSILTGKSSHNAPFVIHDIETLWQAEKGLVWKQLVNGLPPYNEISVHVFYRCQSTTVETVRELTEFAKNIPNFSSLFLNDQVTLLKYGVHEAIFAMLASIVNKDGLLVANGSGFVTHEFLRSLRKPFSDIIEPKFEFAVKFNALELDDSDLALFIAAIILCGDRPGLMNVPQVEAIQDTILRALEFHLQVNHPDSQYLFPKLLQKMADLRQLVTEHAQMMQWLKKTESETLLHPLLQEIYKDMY
The settings on record: mice, cited from earlier work.

The test system of series [1] is Angiopoietin-like 4 (ANGPTL4). Briefly: In vivo expression of PPAR regulated target gene in rat muscle.
For another series, the target named is T2, LXRβ (Homo sapiens, UniProt P55055).
T2 sequence (P55055 1-460): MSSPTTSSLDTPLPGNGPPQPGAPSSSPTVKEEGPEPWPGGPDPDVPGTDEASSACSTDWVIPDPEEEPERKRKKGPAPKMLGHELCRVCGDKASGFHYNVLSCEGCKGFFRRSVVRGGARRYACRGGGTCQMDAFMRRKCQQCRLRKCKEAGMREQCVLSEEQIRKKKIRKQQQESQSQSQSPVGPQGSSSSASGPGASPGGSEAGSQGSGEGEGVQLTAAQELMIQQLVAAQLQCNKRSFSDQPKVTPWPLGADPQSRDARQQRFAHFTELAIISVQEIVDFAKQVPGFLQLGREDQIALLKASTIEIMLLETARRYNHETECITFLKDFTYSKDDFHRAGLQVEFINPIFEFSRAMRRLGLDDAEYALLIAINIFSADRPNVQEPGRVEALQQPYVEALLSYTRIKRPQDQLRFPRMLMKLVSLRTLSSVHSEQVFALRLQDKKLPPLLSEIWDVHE
Briefly: Activation of human cells expressing nuclear receptors. Format: cell-based.

The nature of series [2]: Clinical studies, safety and tolerability. Type of series: in vivo, human.
Series [3] has as its system PPARδ regulated genes (CPT1b, PGC-1α). Briefly: In vivo expression of PPARδ regulated genes in mice muscle.
Another series deals with T3, LXRα (Homo sapiens, UniProt Q13133).
T3 sequence (Q13133 1-447): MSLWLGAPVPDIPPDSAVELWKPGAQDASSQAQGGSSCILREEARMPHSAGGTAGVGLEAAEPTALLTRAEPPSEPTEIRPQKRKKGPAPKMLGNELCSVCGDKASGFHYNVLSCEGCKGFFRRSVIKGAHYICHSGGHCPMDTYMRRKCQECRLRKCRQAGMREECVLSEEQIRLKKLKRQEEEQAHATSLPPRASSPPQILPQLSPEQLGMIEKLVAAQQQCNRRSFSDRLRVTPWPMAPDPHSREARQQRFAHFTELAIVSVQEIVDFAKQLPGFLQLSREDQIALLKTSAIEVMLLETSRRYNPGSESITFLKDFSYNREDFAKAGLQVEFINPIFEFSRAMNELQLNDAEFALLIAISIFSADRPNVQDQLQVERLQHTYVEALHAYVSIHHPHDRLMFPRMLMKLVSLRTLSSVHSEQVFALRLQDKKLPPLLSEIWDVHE
The experiment in a line: Activation of human cells expressing nuclear receptors. Format: cell-based.

In the next series the target is T4, PPARγ (Homo sapiens, UniProt P37231).
T4 sequence (P37231 1-505): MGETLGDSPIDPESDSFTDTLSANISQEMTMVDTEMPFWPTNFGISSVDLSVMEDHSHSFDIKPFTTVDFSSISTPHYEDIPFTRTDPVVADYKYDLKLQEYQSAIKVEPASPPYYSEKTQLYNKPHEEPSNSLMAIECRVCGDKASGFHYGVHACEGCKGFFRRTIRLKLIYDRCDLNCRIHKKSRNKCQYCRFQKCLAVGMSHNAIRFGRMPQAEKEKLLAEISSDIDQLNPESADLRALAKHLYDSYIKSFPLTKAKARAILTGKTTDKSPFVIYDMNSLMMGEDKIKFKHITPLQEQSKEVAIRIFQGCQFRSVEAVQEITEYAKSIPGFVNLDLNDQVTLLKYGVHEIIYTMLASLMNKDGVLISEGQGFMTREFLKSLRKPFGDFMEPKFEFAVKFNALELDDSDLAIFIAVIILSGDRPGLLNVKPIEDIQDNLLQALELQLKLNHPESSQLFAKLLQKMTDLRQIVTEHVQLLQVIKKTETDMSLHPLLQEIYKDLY
Briefly: PPAR agonist activity in human cell lines expressing PPAR isotypes. Type of series: cell-based. How it is done: (§1) Compound I is a PPARδ agonist that is useful in the methods of treatment described herein. In human cell lines expressing all three peroxisome proliferator-activated receptor (PPAR) isotypes, Compound I is a potent (EC50<100 nM) and selective human PPARδ agonist, with minor activity on PPARα (EC50>10 μM) and PPARγ (EC50>10 μM).

A further series deals with T5, PPARα (Homo sapiens, UniProt Q07869).
T5 sequence (Q07869 1-468): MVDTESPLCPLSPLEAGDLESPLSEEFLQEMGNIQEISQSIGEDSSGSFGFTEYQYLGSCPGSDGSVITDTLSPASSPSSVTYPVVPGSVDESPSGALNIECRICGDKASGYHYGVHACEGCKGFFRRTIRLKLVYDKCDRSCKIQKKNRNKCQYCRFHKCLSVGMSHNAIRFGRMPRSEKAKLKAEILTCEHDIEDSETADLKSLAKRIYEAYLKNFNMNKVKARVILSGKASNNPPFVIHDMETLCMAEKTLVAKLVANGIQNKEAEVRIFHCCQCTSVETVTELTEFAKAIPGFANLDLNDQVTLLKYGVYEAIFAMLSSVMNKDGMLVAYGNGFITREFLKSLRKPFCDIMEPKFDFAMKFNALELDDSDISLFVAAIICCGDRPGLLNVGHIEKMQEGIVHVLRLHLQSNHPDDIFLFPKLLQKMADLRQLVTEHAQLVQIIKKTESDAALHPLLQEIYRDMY
Described as above. Type of series: cell-based. How it is done:
as §1

The next series addresses T6, human PPARδ (Homo sapiens, UniProt Q03181).
T6 sequence (Q03181 1-441): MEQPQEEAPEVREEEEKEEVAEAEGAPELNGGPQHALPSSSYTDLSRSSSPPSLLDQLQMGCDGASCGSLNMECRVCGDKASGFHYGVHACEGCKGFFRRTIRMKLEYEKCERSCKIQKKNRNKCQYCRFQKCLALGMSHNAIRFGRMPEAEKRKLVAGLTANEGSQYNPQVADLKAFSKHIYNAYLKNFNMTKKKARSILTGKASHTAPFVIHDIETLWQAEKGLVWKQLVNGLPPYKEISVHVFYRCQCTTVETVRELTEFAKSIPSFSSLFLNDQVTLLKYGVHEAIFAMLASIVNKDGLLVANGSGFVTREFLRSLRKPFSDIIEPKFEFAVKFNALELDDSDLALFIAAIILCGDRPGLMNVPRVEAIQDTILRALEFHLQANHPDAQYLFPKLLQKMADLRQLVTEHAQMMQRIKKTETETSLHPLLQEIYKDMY
Described as above. Type of series: cell-based. How it is done:
as §1

In the next series the target is T7, FXR (Homo sapiens, UniProt Q96RI1).
T7 sequence (Q96RI1 1-486): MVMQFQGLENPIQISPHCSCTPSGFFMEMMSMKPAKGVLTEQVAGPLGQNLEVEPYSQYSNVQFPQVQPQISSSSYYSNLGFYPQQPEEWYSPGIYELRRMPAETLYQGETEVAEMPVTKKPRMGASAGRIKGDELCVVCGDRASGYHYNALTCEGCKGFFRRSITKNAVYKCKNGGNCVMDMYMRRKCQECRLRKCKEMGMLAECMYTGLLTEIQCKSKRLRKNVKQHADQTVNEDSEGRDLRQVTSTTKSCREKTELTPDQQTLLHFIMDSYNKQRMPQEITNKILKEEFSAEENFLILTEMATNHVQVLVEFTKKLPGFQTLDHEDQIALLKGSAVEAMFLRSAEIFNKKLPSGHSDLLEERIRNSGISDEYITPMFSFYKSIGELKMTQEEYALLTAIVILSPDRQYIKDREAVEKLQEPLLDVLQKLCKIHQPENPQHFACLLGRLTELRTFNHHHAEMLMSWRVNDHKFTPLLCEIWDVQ
Briefly: Activation of human cells expressing nuclear receptors. Type of series: cell-based.

In the next series the test system is RXR. The series is described as above. Format: cell-based.
Setting [4] is: in combination with exercise, 4 weeks.
Setting [5] is: human cell lines expressing all three PPAR isotypes.

Consider `Cc1cc(SCc2sc(-c3ccc(C(F)(F)F)cc3)nc2C)ccc1OCC(=O)O` [GW1516], for which the energy substrate usage result on PPARδ (8 weeks) was “clear shift in energy substrate usage from glucose to fatty acid oxidation”. At PPARδ (setting [4]), the “muscle fibers, mitochondrial biogenesis” value is “synergistically induced fatigue-resistant oxidative muscle fibers and mitochondrial biogenesis”; the physical performance result is reported as “enhanced physical performance”.

Regarding `Cc1cc(OC/C=C(/c2ccc(F)cc2)c2ccc(C#CCN3CCOCC3)cc2)ccc1OCC(=O)O` [Compound I, (E)-2-(4-((3-(4-fluorophenyl)-3-(4-(3-morpholinoprop-1-yn-1-yl)phenyl)allyl)oxy)-2-methylphenoxy)acetic acid], the “expression of ANGPTL4” value in [1] is “increased the expression”. Further, the “activation of human cells expressing LXRβ” value at LXRβ was “did not result in activation”. Besides, in series [2], the “incidence of adverse events (AEs) versus placebo” value is “similar” and the “serious adverse events (SAEs)” value is “No serious adverse events (SAEs) were reported”. In addition, in [2] (Compound I or a pharmaceutically acceptable salt, solvate or hydrate), the safety and tolerability result was “safe and well tolerated”. In addition, the “expression of PPARδ regulated genes CPT1b (beta-oxidation of long chain fatty acids) and PGC-1α (mitochondrial biogenesis)” value in series [3] is “altered the expression patterns”. Besides, the “activation of human cells expressing LXRα” value on LXRα is recorded as “did not result in activation”. Besides, at PPARγ, the “selectivity for PPARδ over PPARγ” value amounted to 400 fold and the “type of agonism on PPARγ” value is “only partial agonist activity”. This molecule also had a concentration for a half-maximal effect (EC50) on PPARγ (setting [5]) greater than 10 µM. Besides, at PPARα, the “selectivity for PPARδ over PPARα” value is recorded as 100 fold and the “type of agonism on PPARα” value was “only partial agonist activity”. The EC50 at PPARα (setting [5]) is greater than 10 µM. Also, the “type of agonism on PPARδ” value on human PPARδ is reported as “full PPARδ agonist”. This molecule also yielded an EC50 at human PPARδ (setting [5]) of less than 0.1 µM. The “activation of human cells expressing FXR” value at FXR is “did not result in activation”. Besides, the “activation of human cells expressing RXR” value in the series on RXR is recorded as “did not result in activation”.
